Blank lines part the entries; values can stand above or below the molecule they belong to.
What was measured:
Ramos B cells = test: Ramos pErk assay (anti-IgM stimulated B cells, pErk MSD); type: cell-based; conditions: Homo sapiens, Ramos, anti-IgM 5 μg/ml, pErk readout, read-out: average pIC50 (converted)
Description: Ramos B cells (human B cells of Burkitt's Lymphoma) are stimulated using anti-IgM. […] The subsequent autophosphorylation of Syk leads to initiation of a signalling cascade resulting in B cell activation via the Erk MAP Kinase pathway. As a result Erk is phosphorylated and following cell lysis is detected by an immune capture assay.
Cells were plated at a density of 2.5×10^5/well in a volume of 25 μl assay medium (RPMI containing 10% heat inactivated foetal calf serum, 1% L-glutamine) in 96 v-well polypropylene plates. 25 μl appropriately diluted compound solution was added and the plate incubated for 30 min at 37° C. with 5% CO2. Cells were stimulated with 5 μl Fab′2 fragments of goat anti-human IgM (5 μg/ml final) for 7 min at 37° C. Cells are lysed by the addition of 55 μL 2×RIPA lysis buffer for 2 h at 4° C. Lysate may be frozen at this point at −80° C.
50 μl cell lysate was transferred to a 96 well MSD plate coated with anti-pErk1/2 (Thr/Tyr: 202/204; 185/187) capture antibody and incubated for 16 hours at 4° C. or 3 hours at room temperature. The plate was washed and an anti-pErk detection antibody added (25 μl/well) for 1 hour at room temperature. This was removed, 150 μL MSD read buffer added and the resultant electrochemiluminescence signal measured.
Compound was prepared as a 10 mM stock in DMSO and a dilution series prepared in DMSO using 9 successive 5-fold dilutions. This dilution series was diluted a further 1:100 with assay medium to give the final concentration range to be tested of 5×10^−5 to 2.56×10^−11M. Compound dilutions were prepared using the Biomek 2000 and Biomek Nx automated robotic pipetting systems.

[1] = dosed intranasally, phase I/II, allergic rhinitis; cited from earlier work
[2] = further phase II clinical trial, allergic rhinitis; cited from earlier work
[3] = cited from earlier work
B lymphoma (BKS-2) = conditions: murine BKS-2 B lymphoma model; cited from earlier work

- IC50 (Ramos B cells): 0.158 to 6.31 µM
SMILES: Cc1ccnc(COc2ccc(C(=O)N(C)C)cc2-c2ccc3c(c2)CNCC3)c1 [Example 41, N,N-dimethyl-4-{[(4-methyl-2-pyridinyl)methyl]oxy}-3-(1,2,3,4-tetrahydro-7-isoquinolinyl)benzamide]

- IC50 (Ramos B cells): 0.158 to 6.31 µM
SMILES: Cc1ccnc(COc2ccc(Cl)cc2-c2ccc3c(c2)CCNCC3)c1 [Example 45, 7-(5-chloro-2-{[(4-methyl-2-pyridinyl)methyl]oxy}phenyl)-2,3,4,5-tetrahydro-1H-3-benzazepine]

- IC50 (Ramos B cells): 0.158 to 6.31 µM
SMILES: Clc1ccc(OCc2ccccn2)c(-c2ccc3c(c2)CNCC3)c1 [Example 46, 7-{5-chloro-2-[(2-pyridinylmethyl)oxy]phenyl}-1,2,3,4-tetrahydroisoquinoline]

- IC50 (Ramos B cells): 0.158 to 6.31 µM
SMILES: Cc1ccnc(COc2ccc(Cl)nc2-c2ccc3c(c2)CCNCC3)c1 [Example 48, 7-(6-chloro-3-{[(4-methyl-2-pyridinyl)methyl]oxy}-2-pyridinyl)-2,3,4,5-tetrahydro-1H-3-benzazepine]

- IC50 (Ramos B cells): 0.158 to 6.31 µM
SMILES: Cc1ccnc(COc2ccc(Cl)nc2-c2ccc3c(c2)CNCC3)c1 [Example 49, 7-(6-chloro-3-{[(4-methyl-2-pyridinyl)methyl]oxy}-2-pyridinyl)-1,2,3,4-tetrahydroisoquinoline]

SMILES: Oc1cccc(Nc2ncc(F)c(Nc3cccc(O)c3)n2)c1 [Example R112]
- PGD2 [1]: statistically significant decrease
- clinical safety [1]: safe across a range of indicators
- efficacy versus placebo [2]: lack of efficacy versus placebo

SMILES: COc1cc(Nc2ncc(F)c(Nc3ccc4c(n3)N(COP(=O)(O)O)C(=O)C(C)(C)O4)n2)cc(OC)c1OC [Example R788, fostamatinib disodium]
- therapeutic effect ([3]; patients with DLBCL and CLL/SLL): therapeutic benefit
- tolerability ([3]; patients with relapsed or refractory B-Cell NHL): well-tolerated

SMILES: COc1cc(/C=C/C(=O)CC(=O)/C=C/c2ccc(O)c(OC)c2)ccc1O [curcumin]
- tumour burden as measured by the total splenocyte number (B lymphoma (BKS-2)): significant reduction of tumour burden
